Source: US20260042801A1, “COMPOSITIONS AND METHODS FOR DYE-BOUND CYCLIZED PEPTIDES FOR MEDICAL USE” (The Texas A&M University System, priority 2022, published 2026)

What was measured:
Synapsin I = test: Astrocyte Synapsin I staining (fluorescent intensity); type: cell-based, mouse; conditions: astrocytes from 6-month-old male mice, 5 μM, 3 days
Protocol: (§1) FIGS. 4A-4D: 5c(i) induces Synapsin I production and reduces C3 and GSK-3s expression from astrocytes promoting neuron survival and neurite growth. Primary adult cortical astrocytes from 6-month-old male mice were incubated with 5 μM 5c(i) for 3 days. Graph represents mean±SEM of percent change in fluorescent intensity (Synapsin I and C3) or chemiluminescence (GSK-3β) relative to Vehicle (4A and 4D). Images represent the 4B) Vehicle and 4C) 5 μM 5c(i) treated groups stained with Synapsin I and DAPI. D) Cortical astrocytes from 6-month-old male mice were plated and treated with 5c(i) or Vehicle for 2 days. Cells were then washed and cortical neurons from 6-month-old male mice were added on top of the astrocytes. […] Scale bar=50 μm.
(§2) To determine if 5c(i) can modulate astrocytes, adult astrocytes from 6-month-old male mice were treated with 5c(i) for 3 days and stained with Synapsin I and C3 to measure changes in fluorescent intensity or western blot was conducted on the cell lysate to assess changes in GSK-3β expression (FIG. 4). […] To determine if 5c(i) treated astrocytes can directly benefit neuronal recovery, astrocytes were cultured with 5c(i) for 2 days before removing 5c(i) from the culture and plating adult neurons on top of the astrocytes for 2DIV, resulting in increased neuron survival and neurite growth. […]

[1] = mouse, in vivo
Protocol: 8-week-old male mice with a severe T8 contusion/compression SCI were injected IP daily with 5c(i) for 7 weeks (5 and 25 mg/kg/day). […] 7 weeks post injury, heparinized plasma was collected and 12B) alanine aminotransferase (ALT), 12C) alkaline phosphatase (ALP), 12D) aspartate aminotransferase (AST), and 12E) blood urea nitrogen (BUN) levels were assessed. […] N=6-8. Graphs show mean and SEM. # (p<0.1) * (p<0.05) ** (p<0.01) *** (p<0.001) **** (p<0.0001). Student's T-test.
For the administration of pharmaceutical agents, the vehicle was 0.6 mL/kg of 100% dimethyl sulfoxide (DMSO). 5c(i) (at 5 and 25 mg/kg/day) diluted in vehicle or vehicle alone was administered once daily through intraperitoneal (IP) injections at a volume of 0.6 mL/kg/day.
Seven weeks after injury, histological analysis was performed on livers, and toxicology screens were conducted on plasma (FIG. 12).

C3 = test: Astrocyte C3 staining (fluorescent intensity); type: cell-based, mouse; conditions: astrocytes from 6-month-old male mice, 5 μM, 3 days
Protocol: as §1, §2

[2] = system: primary adult cortical neurons; test: Primary adult cortical neuron culture: survival and neurite outgrowth; type: cell-based, mouse; conditions: adult neurons from 6-month-old mice, 2 days with 5c(i)
Protocol: FIGS. 3A-3C: 5c(i) augments neuritogenesis and neuron survival. Primary adult cortical neurons from 6-month-old female mice were treated with 5c(i) for 2 days. 5c(i) was added at the time of cell plating. Cells were fixed 2 days after cell plating. 3A) Graph represents mean±SEM of percent change in neurite outgrowth per cell and number of surviving neurons. Representative images of 3B) Vehicle and 3C) 5000 nM 5c(i) treated groups. Linear regression was conducted to determine statistical significance. […] Scale bar=50 μm.
For all cell culture experiments, primary neural cells were extracted from the cortices of […] mice. The extraction, purification, and separation of neurons and glia was conducted as previously before^58 covered under patent application WO2022266431, incorporated by reference herein in its entirety. Briefly, after euthanization of mice, the brains were microdissected and placed in papain filled GENTLEMACS™ (tissue dissector) C Tubes followed by cell dissociation using the GENTLEMACS™ (tissue dissector) Octo Dissociator with Heaters with heating cuffs using the GENTLEMACS™ (tissue dissector) Program 37C_ABDK_01 protocol. After protocol completion, the contents were strained through a 70 μm cell strainer, debris and red blood cells were removed, and the remaining solution was labeled with glia specific antibodies. […]

C-DIRG-C BODIPY® (fluorescent dye) [5c(i)]
Synapsin I production (Synapsin I): significant increase | alanine aminotransferase (ALT) [1]: does not alter | alkaline phosphatase (ALP) [1]: does not alter | aspartate aminotransferase (AST) [1]: does not alter | blood urea nitrogen (BUN) [1]: does not alter | C3 expression (C3): reduction | increase in neurite outgrowth [2]: 42% | increase in neuron survival [2]: 94%
